In US5786344A, “Camptothecin drug combinations and methods with reduced side effects” (priority 1995, dated 1998):
“Also recorded” adds a separate entry of the source. Where a name gives a salt, the structure may show the parent alone. Read-outs that look alike come from different tables or passages of the source. *1 amine or outer side, *2 acyl side, *3 side chain or, on linkers, in order; H or OH if unused. Where a SMILES comes first, the peptide text is derived from it. Bridges are numbered along the chain shown (N, C = ends). Roman numbers before positions name the chains, in order. [ ]: non-standard residue; d: D form. Actinocin(9to1) = Cc1c2oc3c(C)ccc(C(=O)[*:1])c3nc-2c(C(=O)[*:2])c(N)c1=O; NMeV = CN[C@H](C(=O)O)C(C)C; Sar = CNCC(=O)O

What was measured:
tumors = settings: cited from earlier work; for antitumor activity: preclinical and clinical tumors
[1] = test system: human and murine cell lines; settings: 4-6 μM; cited from earlier work
[2] = cited from earlier work; for half-life: plasma/serum/terminal or elimination half-life
p-glycoprotein [3] = target: T1, p-glycoprotein (Homo sapiens, UniProt P08183); test: in vitro; format: binding
T1 construct: membrane vesicles from the multidrug resistant breast tumor cell line; endogenous in cells; host or cells: MCF-7/Adr (multidrug resistant human breast cancer cell line), membrane vesicles
T1 sequence (P08183 whole entry): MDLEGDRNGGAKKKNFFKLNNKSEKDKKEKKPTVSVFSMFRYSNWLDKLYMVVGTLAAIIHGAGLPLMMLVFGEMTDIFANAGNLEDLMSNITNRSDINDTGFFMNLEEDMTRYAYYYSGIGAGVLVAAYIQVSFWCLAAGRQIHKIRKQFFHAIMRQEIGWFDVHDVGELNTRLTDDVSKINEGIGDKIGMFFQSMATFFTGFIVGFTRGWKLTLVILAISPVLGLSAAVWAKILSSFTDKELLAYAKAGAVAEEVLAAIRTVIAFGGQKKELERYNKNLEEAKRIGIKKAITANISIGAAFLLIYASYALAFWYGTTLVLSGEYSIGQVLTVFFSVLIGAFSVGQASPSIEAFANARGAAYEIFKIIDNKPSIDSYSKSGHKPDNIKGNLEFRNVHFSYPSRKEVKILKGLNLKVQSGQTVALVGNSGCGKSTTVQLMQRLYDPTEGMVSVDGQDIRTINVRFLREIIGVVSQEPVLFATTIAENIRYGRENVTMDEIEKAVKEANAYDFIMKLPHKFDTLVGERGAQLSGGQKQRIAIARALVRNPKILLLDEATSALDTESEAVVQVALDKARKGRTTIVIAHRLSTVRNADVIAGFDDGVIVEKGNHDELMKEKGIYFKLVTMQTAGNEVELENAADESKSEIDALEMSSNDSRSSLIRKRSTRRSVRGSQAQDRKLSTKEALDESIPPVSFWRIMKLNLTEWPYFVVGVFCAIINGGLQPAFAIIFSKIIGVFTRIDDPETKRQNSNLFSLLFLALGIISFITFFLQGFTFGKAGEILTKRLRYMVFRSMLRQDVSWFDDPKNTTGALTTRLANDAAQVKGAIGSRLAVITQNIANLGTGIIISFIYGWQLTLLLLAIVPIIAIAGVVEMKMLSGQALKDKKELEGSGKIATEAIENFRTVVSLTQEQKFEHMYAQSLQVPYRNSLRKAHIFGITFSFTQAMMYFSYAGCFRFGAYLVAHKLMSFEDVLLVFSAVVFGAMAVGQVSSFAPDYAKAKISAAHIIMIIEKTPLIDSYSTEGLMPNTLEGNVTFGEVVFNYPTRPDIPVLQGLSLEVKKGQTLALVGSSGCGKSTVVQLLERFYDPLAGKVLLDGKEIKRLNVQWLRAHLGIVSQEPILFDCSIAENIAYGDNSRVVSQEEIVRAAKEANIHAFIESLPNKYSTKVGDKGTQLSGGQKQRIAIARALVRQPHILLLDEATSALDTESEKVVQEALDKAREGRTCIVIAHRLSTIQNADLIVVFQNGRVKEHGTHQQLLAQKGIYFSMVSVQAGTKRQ
Excerpt: FIG. 5. […]. Membrane vesicles from the multidrug resistant human breast cancer tumor cell line […] were used. […].

[4] = Phase I pharmacokinetics of CPT-11, SN-38 and SN-38G in plasma/urine after 90 min iv infusion; settings: in vivo
Method: All patients met the standard laboratory criteria including criteria for adequate organ function. Informed, written consent was obtained from all patients prior to their first dose of CPT-11. The drug was given in 500 cc normal saline by intravenous infusion over 90 minutes on a weekly basis for four doses in a sixweek cycle. […] A second cycle was given with the same dose and schedule used during cycle 1. […] Patients who experienced dose limiting neutropenia were eligible to receive G-CSF at 5 μg/kg/day according to the criteria defined below.
To determine drug and metabolite levels, heparinized blood samples obtained on the first cycle of therapy, were centrifuged and the plasma was stored at -70° C. until analysis. CPT (camptothecin, 1 μg/ml, obtained from the National Cancer Institute, Bethesda, Md.) was used as an internal standard. One hundred μl of plasma was extracted with 2 ml of methanol, centrifuged at 2500×g for 10 min and the supernatant was evaporated to dryness. Reconstitution was done with 200 μl of methanol containing 0.1% 10M HCL (pH~2.0). For the estimation of SN-38G, plasma samples were extracted as described above. Prior to reconstitution, the samples were incubated with 1000 U of glucuronidase (Sigma Chemical Co., St. Louis, Mo.) for 2 hours at 37° C.
Analysis was done using a C18 column (μBondapak, 10 μm, 3.9×300 mm; Waters Associates, Milford, Mass.) preceded by a Novapak C18 guard column. […] Detection was monitored by a Hitachi F1050 Fluorescence detector (Hitachi Instruments Inc., Naperville, Ill.) with a λex at 375 nm and λem at 566 nm. […] SN-38G concentrations were determined as the increase in SN-38 concentrations following incubation with glucuronidase.
The plasma concentration-time data of CPT-11, SN-38 and SN-38G were analyzed by non-compartmental analysis using PCNONLIN (SCI, Lexington, Ky.). The area under the plasma concentration-time curve (AUC) from time zero (predose) to the time of the last quantifiable concentration (AUCt) was calculated by the trapezoidal rule. The AUC extrapolated to time infinity (AUCt →.infin.) was estimated by dividing the last quantifiable concentration by the terminal rate constant obtained by the log-linear regression of the terminal elimination phase. The AUC was the summation of AUCt and AUCt→.infin.. Clearance (CL) was estimated as the ratio of the dose and AUC.
The present study employed this principle to obtain an estimate of SN-38 excreted in the bile. Since glucuronidation is the major pathway of elimination of SN-38, the fraction of SN-38 not conjugated would be primarily excreted in the bile. The net biliary concentration of SN-38 would then be a resultant of its formation and elimination. This concentration was expressed as the "biliary ratio" which was the ratio of AUC of SN-38 to SN-38G. To control for individual variability in the amount of available drug, the ratio was multiplied by the AUC of CPT-11 to obtain a "biliary index" of SN-38.
The nonparametric Mann-Whitney test was employed to test for differences in pharmacokinetic outcomes between two patient groups, defined by the worst severity of diarrhea experienced in the first two cycles of CPT-11 treatment. Statistical tests were performed in the Number Cruncher Statistical System (Dr. Jerry Hintz, Kaysville, Utah). A two-sided significance level of less than or equal to 0.05 was considered statistically significant.

[5] = rat, in vivo; cited from earlier work
[6] = animal studies; cited from earlier work
[7] = nude mice, accumulation in the intestine; cited from earlier work
p-glycoprotein [8] = settings: renal tubules; cited from earlier work
p-glycoprotein [9] = settings: cited from earlier work
[10] = test system: outwardly-rectifying chloride channel; settings: 50 μM; cited from earlier work
p-glycoprotein [11] = settings: cited from earlier work; remark: listed apart in the source
p-glycoprotein [12] = settings: cited from earlier work; remark: listed apart in the source
[13] = cited from earlier work
[14] = test system: breast, ovarian, non-small cell lung, colorectal, gastric and renal cell carcinomas; settings: in vitro; cited from earlier work
plasma proteins = settings: cited from earlier work

Compound: CC[C@@]1(O)C(=O)OCc2c1cc1n(c2=O)Cc2cc3c(N)cccc3nc2-1 [9-AC, 9-amino-20(s)-camptothecin]
- antitumor activity (tumors): significant activity of 9-AC against colon cancer

Compound: CC/C(=C(\c1ccccc1)c1ccc(OCCNC)cc1)c1ccccc1 [N-desmethyltamoxifen]
- enhancement of intracellular concentration of cytotoxic drugs [1]: three-fold to ten-fold
- concentration ([2]; read-out: plasma level, oral tamoxifen 150 mg/m2 twice a day after 400 mg/m2 loading dose): 6 µM

Compound: CCc1c2c(nc3ccc(O)cc13)-c1cc3c(c(=O)n1C2)COC(=O)[C@]3(O)CC [SN-38, 7-ethyl-10-hydroxy-camptothecin]
- terminal half-life of closed ring forms ([2]; human, in vivo): 7.6 to 8.8 h
- substrate of p-glycoprotein (p-glycoprotein [3]): substrates of p-glycoprotein
- inhibition at 100 µM (p-glycoprotein [3]; human, mcf-7/adr membrane vesicles): 60%
- increase in AUC SN-38 from secondary peak [4]: ~12%
- increase of AUC from 100 to 175 mg/m^2 [4]: 3.7 fold
- interpatient variability of AUC (percent coefficient of variation) [4]: 2-44%
- biliary radioactivity excreted over 24 h as [5]: 9%
- potency relative to the parent drug CPT-11 (tumors; in vivo): 600-1000 times
- route of excretion [6]: excreted primarily into bile
- cause of diarrhea [7]: responsible for the diarrhea

Compound: Cc1c2oc3c(C)ccc(C(=O)N[C@@H]4C(=O)N[C@H](C(C)C)C(=O)N5CCC[C@H]5C(=O)N(C)CC(=O)N(C)[C@@H](C(C)C)C(=O)O[C@@H]4C)c3nc-2c(C(=O)N[C@@H]2C(=O)N[C@H](C(C)C)C(=O)N3CCC[C@H]3C(=O)N(C)CC(=O)N(C)[C@@H](C(C)C)C(=O)O[C@@H]2C)c(N)c1=O [actinomycin D] (I: T[dV]P[Sar][NMeV] / II: T[dV]P[Sar][NMeV]; ester I:1-I:C, II:1-II:C; linker I:N-II:N via Actinocin(9to1))
- inhibition of p-glycoprotein-mediated transport (p-glycoprotein [8]): inhibitors
- CNS / blood-brain barrier penetration ([2]; human, in vivo): does not pass the blood-brain barrier
- excreted intact into the bile ([2]; human, in vivo): Half of the dose
- urinary excretion ([2]; human, in vivo): 10%
- half-life [2]: about 36 hr
- inhibition of / interaction with p-glycoprotein (p-glycoprotein [9]): inhibitor of p-glycoprotein

Compound: COc1cc2c(c(OC)c1OC)-c1ccc(OC)c(=O)cc1[C@@H](NC(C)=O)CC2 [colchicine]
- inhibition of p-glycoprotein-mediated transport (p-glycoprotein [8]): inhibitors
- oral absorption ([2]; oral): well-absorbed
- inhibition of / interaction with p-glycoprotein (p-glycoprotein [9]): inhibiting p-glycoprotein; also recorded: binding to p-glycoprotein
- block of chloride channel / transport associated with p-glycoprotein [10]: blocked

Compound: COc1cccc2c1C(=O)c1c(O)c3c(c(O)c1C2=O)C[C@@](O)(C(C)=O)C[C@@H]3O[C@H]1C[C@H](N)[C@H](O)[C@H](C)O1 [daunomycin]
- inhibition of / interaction with p-glycoprotein (p-glycoprotein [9]): p-glycoprotein inhibitor
- block of chloride channel / transport associated with p-glycoprotein [10]: blocked

Compound: COc1cccc2c1C(=O)c1c(O)c3c(c(O)c1C2=O)C[C@@](O)(C(C)=O)C[C@@H]3O[C@H]1C[C@H](N)[C@H](O)[C@H](C)O1 [daunorubicin, hydrochloride]
- distribution half-life ([2]; human, in vivo, iv): 0.75 h
- oral absorption ([2]; human, in vivo, po): Oral absorption is poor
- biliary secretion ([2]; human, in vivo): ~40%
- half-life [2]: about 19 hr
- inhibition of amphiphilic cation transport (p-glycoprotein [11]; hydrochloride): inhibited
- inhibition of amphiphilic cation transport (p-glycoprotein [11]; listed as Daunorubicin, hydrochloride): inhibit

Compound: C=C[C@H]1C[N@@]2CC[C@H]1C[C@@H]2[C@@H](O)c1ccnc2ccc(OC)cc12 [quinidine]
- oral absorption ([2]; human, in vivo, po): 90%
- elimination by hepatic biotransformation ([2]; human, liver): 50-60%
- inhibition of / interaction with p-glycoprotein (p-glycoprotein [9]): binds to p-glycoprotein and inhibits photo-labeling
- inhibition of amphiphilic cation transport (p-glycoprotein [11]): inhibit
- inhibition of digoxin transport (p-glycoprotein [12]): inhibited digoxin transport

Compound: COC(=O)[C@H]1[C@H]2C[C@@H]3c4[nH]c5cc(OC)ccc5c4CCN3C[C@H]2C[C@@H](OC(=O)c2cc(OC)c(OC)c(OC)c2)[C@@H]1OC [reserpine, Yohimban-16-carboxylic acid, 11,17-dimethoxy-18-[(3,4,5-trimethoxybenzoyl)oxy]-, methyl ester, (3β,16β,17α,18β,20α)-]
- persistence of effects after discontinuation ([13]; oral): ≤ 4 weeks
- oral absorption ([2]; human, in vivo, po): absorbed poorly and erratically
- inhibition of / interaction with p-glycoprotein (p-glycoprotein [9]): binds to p-glycoprotein and inhibits photo-labeling
- inhibition of photoaffinity labeling of p-glycoprotein (p-glycoprotein [9]; photolabeling): showed inhibition
- inhibition of digoxin transport (p-glycoprotein [12]): inhibited

Compound: CC/C(=C(\c1ccccc1)c1ccc(OCCN(C)C)cc1)c1ccccc1 [tamoxifen]
- enhancement of intracellular concentration of cytotoxic drugs [1]: three-fold to ten-fold
- dose-limiting toxicity ([13]; oral 150 mg/m2 twice a day): without dose-limiting toxicity
- bioavailability / dose reaching the systemic circulation ([2]; human, in vivo, po): 25-100%
- half-life, single dose ([2]; human, in vivo): 18 h
- half-life, steady state ([2]; human, in vivo): 7 h

Compound: CC(=O)O[C@H]1C(=O)[C@@]2(C)[C@H]([C@H](OC(=O)c3ccccc3)[C@]3(O)C[C@H](OC(=O)[C@H](O)[C@@H](NC(=O)c4ccccc4)c4ccccc4)C(C)=C1C3(C)C)[C@]1(OC(C)=O)CO[C@@H]1C[C@@H]2O [taxol]
- inhibition of / interaction with p-glycoprotein (p-glycoprotein [9]): interacted with p-glycoprotein
- antitumor activity (tumors): activity against malignant melanoma and carcinoma of the ovary

Compound: CC[C@@]1(O)C(=O)OCc2c1cc1n(c2=O)Cc2cc3c(CN(C)C)c(O)ccc3nc2-1 [topotecan]
- activity in clonogenic assay [14]: exhibited activity in breast, ovarian, non-small cell lung, colorectal, gastric and renal cell carcinomas

Compound: CC[C@]1(O)C[C@@H]2CN(CCc3c([nH]c4ccccc34)[C@@](C(=O)OC)(c3cc4c(cc3OC)N(C)[C@H]3[C@@](O)(C(=O)OC)[C@H](OC(C)=O)[C@]5(CC)C=CCN6CC[C@]43[C@@H]65)C2)C1 [vinblastine]
- inhibition of p-glycoprotein-mediated transport (p-glycoprotein [8]): inhibitors
- plasma half-life, first phase ([2]; human, in vivo, iv): approximately 1 hours
- plasma half-life, second phase ([2]; human, in vivo, iv): ~20 h
- Cmax ([2]; human, in vivo): ~0.4 µM
- excreted unchanged (urine) ([2]; human, in vivo): Approximately 15%
- fecal excretion ([2]; human, in vivo): about 10%
- inhibition of / interaction with p-glycoprotein (p-glycoprotein [9]): p-glycoprotein inhibitor; also recorded: interacted with p-glycoprotein
- plasma protein binding (plasma proteins): bind to plasma proteins
- block of chloride channel / transport associated with p-glycoprotein [10]: blocked
